# Results as given in patent US10473645B2, “Methods for identifying a receptor for a ligand and uses thereof” (UNIVERSITE DE GENEVE, priority 2014, dated 2019).
# Experiments:
# [1] = target: T1, olfr145 (Mus musculus, UniProt Q60882); test: OR transcript level by RT-qPCR after in vivo odorant exposure; parameters: key: The transcript downregulation of 21 out of the 26 olfactory receptor candidates obtained by RNAseq was confirmed by qPCR; false RNAseq positive candidates, namely OR candidates for which in fact mRNA was not downregulated following acetophenone exposure; details: 5% acetophenone exposure
# T1 construct: from tissue; host or cells: main olfactory epithelium of living mice
# T1 sequence (Q60882 whole entry): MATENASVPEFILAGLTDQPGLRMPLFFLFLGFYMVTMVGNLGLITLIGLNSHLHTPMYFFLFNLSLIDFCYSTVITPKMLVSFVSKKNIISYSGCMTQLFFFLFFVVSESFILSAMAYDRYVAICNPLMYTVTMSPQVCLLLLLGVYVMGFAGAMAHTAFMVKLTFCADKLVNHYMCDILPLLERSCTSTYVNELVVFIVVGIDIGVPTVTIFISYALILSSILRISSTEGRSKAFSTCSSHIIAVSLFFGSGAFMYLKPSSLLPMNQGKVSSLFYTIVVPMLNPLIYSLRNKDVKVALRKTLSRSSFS
# Description: (§1) In vivo exposure to odorant: Starting 48 h before experiments, mice were habituated to pure DMSO on a cotton ball. 200 μl were pipetted directly onto the cotton and placed in the cage, replacing any cotton that was already in the cage for nest-making purposes.
# (§2) On the day of the experiment, mice receiving odorants were transferred to a different room, where they were exposed to a cotton ball on which 200 μl of odorant diluted in pure DMSO were deposited. Exposures started in the morning between 8 and 10 am (that is two hours after lights were on) and mice were killed and dissected between 1 and 3 pm. […] If a number of different odorants were tested in the same experiment, a different overpressurized room would always be used for each odorant to avoid odor cross-contamination.
# (§3) After odorant exposure, mice were killed by cervical dislocation and immediately decapitated. The main olfactory epithelia (MOE), were harvested in their entirety and transferred to a tube containing 600 μl of lysis buffer and β-mercaptoethanol (RNAeasy kit, Qiagen, following the manufacturer protocol) and a 0.5 cm diameter steel ball, and then put on ice. Samples were then homogenized using a FastPrep®-24 instrument (MP Biomedicals) at 6 m/s for 30 s and left on ice. RNA extraction was performed on all samples in parallel using the Qiagen RNeasy Mini® kit following the manufacturer's instructions. Two DNase treatments were performed on all samples: first using the Qiagen RNase-Free DNase Set® and then using the Life Technologies Ambion DNase I® kit. RNA samples were then aliquoted and stored at −80° C.
# (§4) RNA concentrations were determined using an Amersham Ultrospec® 3100 Pro spectrophotometer, and RNA quality was evaluated with an Agilent Technologies 2100 Bioanalyzer®. Each reverse transcription was performed with 0.5 μg RNA using the Takara Primescript® kit, in a final volume of 10 μl. Primers for reverse transcription were equal mixtures of poly-T nucleotides and random hexamers. Negative controls (omitting the reverse transcriptase enzyme) were performed for each sample. 1/14th of the cDNA preparation was used for each triplicated qPCR reaction.
# (§5) qPCR Ct values were analyzed using an in-house developed Microsoft Excel® macro file. Triplicate values were compared and outliers (values with a difference higher than 0.5 Ct to their nearest neighbor) were discarded. The number of conditions with an outlying value was always less than 10% of the total number of conditions. Ct values were converted to quantities relative to the maximum for each given gene. Selected reference genes were then analyzed for variance using the geNorm algorithm. All values were normalized with the olfactory tissue-specific genes Omp and Adcy3. β-Actin was used as a non-tissue-specific reference gene to control for differences in dissection between samples.
# (§6) Mice (n=6) were exposed to 5% acetophenone or to a “neutral” control condition for 5 hours. An olfactory cDNA library corresponding to each animal was deep sequenced and the ratios of odorant receptor mRNA concentrations relative to controls were plotted (FIG. 3). […] Based on transcriptional downregulation levels observed by RNAseq following acetophenone exposure, a list of 26 candidate responsive ORs was determined (FIG. 3), that reached 74% decrease (Olfr145) or even over 80% (Olfr169) relative to controls. […] The transcript downregulation of 21 out of the 26 olfactory receptor candidates obtained by RNAseq was confirmed by qPCR.
# [2] = target: T2, olfr476 (Mus musculus, UniProt Q8VGI4); test: as above; parameters: key: The transcript downregulation of 21 out of the 26 olfactory receptor candidates obtained by RNAseq was confirmed by qPCR; false RNAseq positive candidates, namely OR candidates for which in fact mRNA was not downregulated following acetophenone exposure; details: 5% acetophenone exposure
# T2 construct: from tissue; host or cells: main olfactory epithelium of living mice
# T2 sequence (Q8VGI4 whole entry): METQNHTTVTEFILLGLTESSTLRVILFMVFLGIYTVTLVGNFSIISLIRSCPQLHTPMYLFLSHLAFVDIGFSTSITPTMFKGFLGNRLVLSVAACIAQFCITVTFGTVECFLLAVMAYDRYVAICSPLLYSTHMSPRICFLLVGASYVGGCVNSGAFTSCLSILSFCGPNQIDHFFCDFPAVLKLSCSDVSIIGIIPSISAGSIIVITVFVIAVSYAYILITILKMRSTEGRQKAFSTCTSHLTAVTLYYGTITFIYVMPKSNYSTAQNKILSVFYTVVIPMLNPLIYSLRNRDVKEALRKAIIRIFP
# Description: as §1, §2, §3, §4, §5, §6
# [3] = target: T3, olfr143 (Mus musculus, UniProt P34985); test: as above; parameters: key: The transcript downregulation of 21 out of the 26 olfactory receptor candidates obtained by RNAseq was confirmed by qPCR; false RNAseq positive candidates, namely OR candidates for which in fact mRNA was not downregulated following acetophenone exposure; details: 5% acetophenone exposure
# T3 construct: from tissue; host or cells: main olfactory epithelium of living mice
# T3 sequence (P34985 whole entry): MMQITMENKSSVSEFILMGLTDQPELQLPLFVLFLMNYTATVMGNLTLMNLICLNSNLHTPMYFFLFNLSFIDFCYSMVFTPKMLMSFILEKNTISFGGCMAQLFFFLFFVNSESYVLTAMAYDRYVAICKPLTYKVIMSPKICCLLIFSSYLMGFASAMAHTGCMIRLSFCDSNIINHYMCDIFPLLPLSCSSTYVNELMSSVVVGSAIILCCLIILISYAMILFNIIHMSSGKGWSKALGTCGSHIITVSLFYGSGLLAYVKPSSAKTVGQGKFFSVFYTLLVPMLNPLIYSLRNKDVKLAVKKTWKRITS
# Description: as §1, §2, §3, §4, §5, §6
# [4] = target: T4, Olfr556 (Mus musculus, UniProt B2RRG2); details: expressed in HEK cells; previously shown; read-out: EC50 as agonist of Olfr556; cited from earlier work
# T4 sequence (B2RRG2 1-324): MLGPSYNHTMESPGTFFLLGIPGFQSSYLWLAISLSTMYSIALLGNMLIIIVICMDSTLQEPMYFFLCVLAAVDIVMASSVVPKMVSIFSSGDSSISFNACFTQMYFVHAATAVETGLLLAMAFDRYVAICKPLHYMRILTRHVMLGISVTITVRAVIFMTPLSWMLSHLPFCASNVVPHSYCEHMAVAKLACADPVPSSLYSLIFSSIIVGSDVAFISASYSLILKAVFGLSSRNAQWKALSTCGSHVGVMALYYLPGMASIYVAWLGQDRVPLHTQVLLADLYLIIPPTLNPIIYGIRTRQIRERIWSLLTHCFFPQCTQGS
# [5] = tested on: Olfr160; test: OR transcript level by RT-qPCR after in vivo odorant exposure; parameters: species or system mouse; key to olfr160 candidate OR (RNAseq) confirmed by qPCR: The transcript downregulation of 21 out of the 26 olfactory receptor candidates obtained by RNAseq was confirmed by qPCR; false RNAseq positive candidates, namely OR candidates for which in fact mRNA was not downregulated following acetophenone exposure; details: for Olfr160 mRNA level relative to unexposed controls: 5% odorant, 5 hours, in vivo, RT-qPCR
# Description: as §1, §2, §3
# RNA concentrations were determined using an Amersham Ultrospec® 3100 Pro spectrophotometer, and RNA quality was evaluated with an Agilent Technologies 2100 Bioanalyzer®. […]
# qPCR Ct values were analyzed using an in-house developed Microsoft Excel® macro file. […] Ct values were converted to quantities relative to the maximum for each given gene. Selected reference genes were then analyzed for variance using the geNorm algorithm. […]
# [6] = target: T4, Olfr556; test: OR transcript downregulation by RNAseq after in vivo exposure; parameters: from tissue; host or cells: main olfactory epithelium of exposed mice; details: 5% odorant, 5 hours, reduction larger than 20% = downregulated
# Description: Animals were exposed to 5% acetophenone for 5 hours before RNA extraction (as previously described). cDNA libraries were generated with the Truseq RNA and DNA sample preparation kits after selection of polyA-containing mRNAs. Adapters for RNAseq multiplexing were added to the cDNAs. The cDNA libraries were sequenced with a HiSeq®2500 Sequencing system. 100 bp reads were mapped using Bowtie2 with a 28 bp seed. The differential gene expression analyses were performed with DESeq2. Because of the high sequence similarity between OR gene paralogs, some reads are mapped to multiple OR genes. These reads were removed from the analysis.
# as §6
structure (smiles),measurement,setting,value
CC(=O)c1ccccc1 [acetophenone],olfr145 candidate OR (RNAseq) confirmed by qPCR,[1],y
same,olfr476 candidate OR (RNAseq) confirmed by qPCR,[2],y
same,olfr143 candidate OR (RNAseq) confirmed by qPCR,[3],y
same,EC50,[4],< 50 µM
same,olfr160 candidate OR (RNAseq) confirmed by qPCR,[5]; 5% acetophenone exposure,y
same,Olfr160 mRNA level relative to unexposed controls,[5],decrease
same,Olfr160 mRNA level relative to unexposed controls,[5]; listed as Acetophenone,downregulates
same,Olfr556 transcript modulation (RNAseq),[6],downregulated
